18 compounds from paper PMC4139024, “Synthesis and In Vitro Inhibition Effect of New Pyrido[2,3-d]pyrimidine Derivatives on Erythrocyte Carbonic Anhydrase I and II” (BioMed Research International, 2014) can be followed below.

Data set [1] has as its target T1, human carbonic anhydrase II (hCA II) (Homo sapiens, UniProt P00918).
T1 construct: from tissue
The data set can be described thus: hCA II inhibition assay (Maren method, CO2 hydration). The data set is classed as biochemical. The following applies: purified human erythrocyte hCA II, CO2 as substrate. The protocol:
(§1) Blood samples (25 mL) were taken from healthy human volunteers. They were anticoagulated with acid-citrate-dextrose and centrifuged at 2000 g for 20 min at 4°C and the supernatant was removed. The packed erythrocytes were washed three times with 0.9% NaCl and then haemolysed in cold water. The ghosts and any intact cells were removed by centrifugation at 2000 g for 25 min at 4°C, and the pH of the haemolysate was adjusted to pH 8.5 with solid Tris-base. The 25 mL haemolysate was applied to an affinity column containing L-tyrosine-sulfonamide-sepharose-4B [21] equilibrated with 25 mM Tris-HCl/0.1 M Na2SO4 (pH 8.5). The affinity gel was washed with 50 mL of 25 mM Tris-HCl/22 mM Na2SO4 (pH 8.5). The hCA isozymes were then eluted with 0.1 M NaCl/25 mM Na2HPO4 (pH 6.3) and 0.1 M CH3COONa/0.5 M NaClO4 (pH 5.6), which recovered hCA I and hCA II, respectively. Fractions of 3 mL were collected and their absorbance was measured at 280 nm.
(§2) CA activity was measured by the Maren method which is based on determination of the time required for the pH to decrease from 10.0 to 7.4 due to CO2 hydration. The assay solution was 0.5 M Na2CO3/0.1 M NaHCO3 (pH 10.0) and Phenol Red was added as the pH indicator. CO2-hydratase activity (enzyme units (EU)) was calculated by using the equation t 0 − t c/t c, where t 0 and t c are the times for pH change of the nonenzymatic and the enzymatic reactions, respectively.
(§3) For the inhibition studies of indolylchalcone and pyrido[2,3-d]pyrimidine derivatives, different concentrations of these compounds were added to the enzyme. Activity percentage values of CA for different concentrations of each pyrimidine derivatives were determined by regression analysis using Microsoft Office 2000 Excel. CA enzyme activity without these compounds was accepted as 100% activity.

In data set [2] the target is T2, human carbonic anhydrase I (hCA I) (Homo sapiens, UniProt P00915).
T2 construct: from tissue
Nature of the data set: hCA I inhibition assay (Maren method, CO2 hydration). The data set is classed as biochemical. The following applies: purified human erythrocyte hCA I, CO2 as substrate. The protocol: as §1, §2, §3

T2 sequence (P00915 whole entry): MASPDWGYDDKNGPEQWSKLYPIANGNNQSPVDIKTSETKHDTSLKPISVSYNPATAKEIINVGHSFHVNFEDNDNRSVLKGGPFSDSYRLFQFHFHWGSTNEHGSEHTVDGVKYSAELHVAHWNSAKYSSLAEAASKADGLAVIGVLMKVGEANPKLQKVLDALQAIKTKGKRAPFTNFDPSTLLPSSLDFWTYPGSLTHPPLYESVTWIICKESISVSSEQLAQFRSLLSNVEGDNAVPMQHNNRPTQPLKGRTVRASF

In the case of `Cc1ccc(-c2cc(-c3cn(C)c4ccccc34)c3c(=O)n(C)c(=O)n(C)c3n2)cc1` [Compound 7g, 1,3-Dimethyl-5-(1-methyl-1H-indol-3-yl)-7-p-tolylpyrido[2,3-d]pyrimidine-2,4(1H,3H)-dione], the melting point was in the range of 340 to 341 °C. In addition, in data set [1], 7.57 µM corresponded to half-maximal inhibition (IC50). In data set [2], this compound displayed an IC50 of 7.61 µM.
With `Cn1cc(/C=C/C(=O)c2ccc(Cl)cc2)c2ccccc21` [Compound 5d, (E)-1-(4-Chlorophenyl)-3-(1-methyl-1H-indol-3-yl)prop-2-en-1-one], the melting point is 248 °C. This compound had an IC50 in data set [1] of 8.26 µM. Also, the IC50 in data set [2] turned out to be 8.2 µM.
For `COc1ccc(C(=O)/C=C/c2cn(C)c3ccccc23)cc1OC` [Compound 5a, (E)-1-(3,4-Dimethoxyphenyl)-3-(1-methyl-1H-indol-3-yl) prop-2-en-1-one], in that order: 271 °C, 8.88 µM and 8.34 µM.
For the compound `Cn1cc(/C=C/C(=O)c2ccccc2)c2ccccc21` [Compound 5e, (E)-3-(1-Methyl-1H-indol-3-yl)-1-phenylprop-2-en-1-one], the IC50 was determined as 9.15 µM in data set [1] and 12.8 µM in data set [2].
Regarding `COc1ccc(-c2cc(-c3cn(C)c4ccccc34)c3c(=O)n(C)c(=O)n(C)c3n2)cc1OC` [Compound 7e, 7-(3,4-Dimethoxyphenyl)-1,3-dimethyl-5-(1-methyl-1H-indol-3-yl)pyrido[2,3-d]pyrimidine-2,4(1H,3H)-dione], the melting point was in the range of 340 to 341 °C. For the same compound, the concentration for half-maximal inhibition (IC50) in data set [1] was 8.06 µM. This compound also yielded an IC50 in data set [2] of 6.79 µM.
For `Cn1cc(-c2cc(-c3cccc([N+](=O)[O-])c3)nc3c2c(=O)[nH]c(=O)n3C)c2ccccc21` [Compound 7d, 1-Methyl-5-(1-methyl-1H-indol-3-yl)-7-(3-nitrophenyl)pyrido[2,3-d]pyrimidine-2,4(1H,3H)-dione], in that order: 397 °C, 13.7 µM and 12.1 µM.
For `Cn1c(=O)c2c(-c3cn(C)c4ccccc34)cc(-c3ccc(Cl)cc3)nc2n(C)c1=O` [Compound 7h, 7-(4-Chlorophenyl)-1,3-dimethyl-5-(1-methyl-1H-indol-3-yl)pyrido[2,3-d]pyrimidine 2,4(1H,3H)-dione] the same measures were 358 to 359 °C, 24.7 µM and 12.4 µM.
For `Cc1ccc(C(=O)/C=C/c2cn(C)c3ccccc23)cc1` [Compound 5c, (E)-3-(1-Methyl-1H-indol-3-yl)-1-p-tolylprop-2-en-1-One] the same measures were 240 °C, 12.3 µM and 13.1 µM.
For the compound `Cn1cc(/C=C/C(=O)c2cccc([N+](=O)[O-])c2)c2ccccc21` [Compound 5g, (E)-3-(1-Methyl-1H-indol-3-yl)-1-(3-nitrophenyl)prop-2-en-1-one], the melting point was determined as 267 °C. Further, in data set [1], the IC50 came out at 7.22 µM. This compound came in with an IC50 in data set [2] of 8.38 µM.
For `COc1ccc(-c2cc(-c3cn(C)c4ccccc34)c3c(=O)n(C)c(=O)n(C)c3n2)cc1` [Compound 7f, 7-(4-Methoxyphenyl)-1,3-dimethyl-5-(1-methyl-1H-indol-3-yl)pyrido[2,3-d]pyrimidine-2,4(1H,3H)-dione] the same measures were 335.7 to 336 °C, 25.4 µM and 26.2 µM.
Regarding `Cn1c(=O)c2c(-c3cn(C)c4ccccc34)cc(-c3ccccc3)nc2n(C)c1=O` [Compound 7i, 1,3-Dimethyl-5-(1-methyl-1H-indol-3-yl)-7-phenylpyrido[2,3-d]pyrimidine-2,4(1H,3H)-dione], the melting point worked out at 320 °C. Also, the IC50 in data set [1] is 8.14 µM. Also, the IC50 in data set [2] turned out to be 8.72 µM.
For `Cn1cc(/C=C/C(=O)c2ccc([N+](=O)[O-])cc2)c2ccccc21` [Compound 5f, (E)-3-(1-Methyl-1H-indol-3-yl)-1-(4-nitrophenyl)prop-2-en-1-one] the same measures were 278 °C, 9.31 µM and 10.9 µM.
For `Cn1c(=O)c2c(-c3cn(C)c4ccccc34)cc(-c3ccc([N+](=O)[O-])cc3)nc2n(C)c1=O` [Compound 7j, 1,3-Dimethyl-5-(1-methyl-1H-indol-3-yl)-7-(4-nitrophenyl)pyrido[2,3-d]pyrimidine-2,4(1H,3H)-dione] the same measures were 347 to 349 °C, 9.56 µM and 10.2 µM.
For `COc1ccc(C(=O)/C=C/c2cn(C)c3ccccc23)cc1` [Compound 5b, (E)-1-(4-Methoxyphenyl)-3-(1-methyl-1H-indol-3-yl) prop-2-en-1-one] the same measures were 254 °C, 10.3 µM and 7.42 µM.
The compound `Cn1c(=O)c2c(-c3cn(C)c4ccccc34)cc(-c3cccc([N+](=O)[O-])c3)nc2n(C)c1=O` [Compound 7k, 1,3-Dimethyl-5-(1-methyl-1H-indol-3-yl)-7-(3-nitrophenyl)pyrido[2,3-d]pyrimidine-2,4(1H,3H)-dione] returned a melting point of 349 to 350 °C. In data set [1], this compound came in with an IC50 of 26.7 µM. For the same compound, the IC50 in data set [2] turned out to be 22.3 µM.
For `COc1ccc(-c2cc(-c3cn(C)c4ccccc34)c3c(=O)[nH]c(=O)n(C)c3n2)cc1OC` [Compound 7a, 7-(3,4-Dimethoxyphenyl)-1-methyl-5-(1-methyl-1H-indol-3-yl)pyrido[2,3-d]pyrimidine-2,4(1H,3H)-dione] the same measures were 333 to 334 °C, 19.4 µM and 16.3 µM.
For `Cc1ccc(-c2cc(-c3cn(C)c4ccccc34)c3c(=O)[nH]c(=O)n(C)c3n2)cc1` [Compound 7b, 1-Methyl-5-(1-methyl-1H-indol-3-yl)-7-p-tolylpyrido[2,3-d]pyrimidine-2,4(1H,3H)-dione] the same measures were 399 to 400 °C, 12.1 µM and 11.6 µM.
For `Cn1cc(-c2cc(-c3ccc(Cl)cc3)nc3c2c(=O)[nH]c(=O)n3C)c2ccccc21` [Compound 7c, 7-(4-Chlorophenyl)-1-methyl-5-(1-methyl-1H-indol-3-yl)pyrido[2,3-d]pyrimidine-2,4(1H,3H)-dione] the same measures were 385 to 389 °C, 31.1 µM and 21.1 µM.
